Values quoted from earlier work, collected in US20120277156A1, “INHIBITION OF PATHOLOGICAL BONE FORMATION” (priority 2009, published 2012).

Tested on: proprioception
Conditions: rat, in vivo

CCN(CC)CC(=O)Nc1c(C)cccc1C [lidocaine]
time by which function was fully recovered: ≤ 120 min
